For 35 compounds, EC50 results are on record in US10851112B2, “Anti-HCMV virus compound” (MEDSHINE DISCOVERY INC., priority 2016, dated 2020).

The assay relates to US3-6-EGFP-HCMV-AD169 viruses. Kind of assay: Fluorescence decay assay against human cytomegalovirus. The format is cell-based, human cytomegalovirus (HCMV). Conditions: Human betaherpesvirus 5, AD169, MRC5, 240 h. On the procedure: Fluorescence Decay Assay Against Human Cytomegalovirus
The antiviral activity of the compound against human cytomegalovirus (HCMV) was evaluated by determining the half maximal effective concentration (EC50) of the compound. The HCMV used in this assay was inserted with enhanced green fluorescent protein (EGFP) by gene recombination, so the viral replication in cells could be reflected by the expression level of GFP. The inhibitory activity of the compound on HCMV GFP expression was evaluated by determining the fluorescence intensity in the wells of different concentrations of the compound using a high content cell analysis platform Acumen eX3.
Fluorescence Decay Assay Against HCMV
MRC5 cells were inoculated into a black 96-well cell culture plate at a density of 20,000 cells per well. The plate was incubated overnight in a 37° C., 5% CO2 incubator. US3-6-EGFP-HCMV-AD169 viruses were added to the cell culture well at a certain MOI (0.003-0.1) and the plate was incubated for 3 hours in a 37° C., 5% CO2 incubator. After adsorption of viruses, the medium containing viruses was aspirated and 200 μL of cell culture medium containing different concentrations of the compound (4-fold dilution, 6 test concentrations) was added. The final concentration of DMSO in the medium was 1%. Virus control wells (with DMSO added, but no compound was added) and inhibition control wells (with a high concentration of control compound added) were set. The cell plate was incubated for 10 days in a 37° C., 5% CO2 incubator and the liquid was renewed on the 4th day and 7th day. After 10 days of culture, the fluorescence intensity was determined using a high content cell analysis platform Acumen eX3 (TTP LabTech). The original data was used for calculating the antiviral activity of the compound.
The inhibition % was imported into GraphPad Prism software for data processing to give a corresponding dose-response curve for the compound and the EC50 of the test compound was obtained.
In the case of `COc1cccc(N2CCN(C3=Nc4c(csc4F)[C@@H](CC(=O)O)N3c3cc(C(F)(F)F)ccc3OC)C[C@H]2C)c1` (single isomer, unassigned) [WX-131], the EC50 worked out at 55 nM.
`COc1cccc(N2CCN(C3=Nc4cc(Cl)sc4[C@@H](CC(=O)O)N3c3cc(C(F)(F)F)ccc3OC)CC2)c1` (single isomer, unassigned) [WX-106]: the EC50 was more than 1000 nM.
For the compound `COc1cc(N2[C@H](C)CN(C3=Nc4ccsc4[C@H](CC(=O)O)N3c3cc(C(F)(F)F)ccc3OC)C[C@H]2C)ccn1` (single isomer, unassigned) [WX-196], the EC50 was 1.91 nM.
Turning to `COc1cc(N2CCN(C3=Nc4ccsc4[C@@H](CC(=O)O)N3c3cc(C(F)(F)F)ccc3OC)C[C@H]2C)ccc1F` (single isomer, unassigned) [WX-200], the EC50 is more than 10 nM.
Regarding `COc1cc(N2CCN(C3=Nc4cc(C)sc4[C@H](CC(=O)O)N3c3cc(C(F)(F)F)ccc3OC)C[C@H]2C)ccn1` (single isomer, unassigned) [WX-173], the EC50 amounted to 0.849 nM.
For `COc1cc(N2CCN(C3=Nc4ccsc4[C@@H](CC(=O)O)N3c3cc(C(F)(F)F)ccc3OC)C[C@H]2C)ccn1` (single isomer, unassigned) [WX-142], the EC50 was determined as 56 nM.
`COc1cccc(N2CCN(C3=Nc4ccsc4[C@@H](CC(=O)O)N3c3cc(C(F)(F)F)ccc3OC)C[C@H]2CF)c1` (single isomer, unassigned) [WX-171]: the EC50 was more than 10 nM.
For `COc1cc(N2CCN(C3=Nc4ccsc4[C@@H](CC(=O)O)N3c3cc(C(F)(F)F)ccc3OC)CC2)ccn1` (single isomer, unassigned) [WX-108], the EC50 turned out to be 340 nM.
For the compound `COc1cccc(N2CCN(C3=Nc4cscc4[C@H](CC(=O)O)N3c3cc(C(F)(F)F)ccc3OC)C[C@H]2C)c1` (single isomer, unassigned) [WX-204], the EC50 came to 0.172 nM.
As to `COc1ccc(C(F)(F)F)cc1N1C(N2CCN(c3ccc(F)cc3)CC2)=Nc2c(csc2F)[C@@H]1CC(=O)O` (single isomer, unassigned) [WX-112], the EC50 was found to be 1 nM.
For `COc1cncc(N2CCN(C3=Nc4c(csc4F)[C@@H](CC(=O)O)N3c3cc(C(F)(F)F)ccc3OC)C[C@H]2C)c1` (single isomer, unassigned) [WX-134] the value was more than 1000 nM.
Take `COc1ccnc(N2CCN(C3=Nc4c(csc4F)[C@@H](CC(=O)O)N3c3cc(C(F)(F)F)ccc3OC)C[C@H]2C)n1` (single isomer, unassigned) [WX-130]: the EC50 was more than 100 nM.
For the compound `COc1ccc(C(F)(F)F)cc1N1C(N2CCC(F)(c3ccc(F)cc3)CC2)=Nc2ccsc2[C@@H]1CC(=O)O` (single isomer, unassigned) [WX-090], the EC50 turned out to be 79 nM.
For `COc1ccc(C(F)(F)F)cc1N1C(N2CCC(F)(c3ccc(F)cc3)CC2)=Nc2c(csc2F)[C@H]1CC(=O)O` (single isomer, unassigned) [WX-100] the value was 73 nM; for `COc1cccc(N2CCN(C3=Nc4cscc4[C@@H](CC(=O)O)N3c3cc(C(F)(F)F)ccc3OC)C[C@H]2C)c1` (single isomer, unassigned) [WX-203], more than 10 nM; for `COc1cccc(N2CCN(C3=Nc4ccsc4[C@@H](CC(=O)O)N3c3cc(C(F)(F)F)ccc3OC)CC2)c1` (single isomer, unassigned) [WX-087], more than 1000 nM.
With `COc1ccc(C(F)(F)F)cc1N1C(N2CCC(F)(c3ccc(F)cc3)CC2)=Nc2ccsc2[C@H]1CC(=O)O` (single isomer, unassigned) [WX-089], the EC50 is more than 1000 nM.
Take `COc1cccc(N2CCN(C3=Nc4ccsc4[C@H](CC(=O)O)N3c3cc(C(F)(F)F)ccc3OC)C[C@H]2CF)c1` (single isomer, unassigned) [WX-172]: the EC50 was 0.099 nM.
To `COc1ccnc(N2CCN(C3=Nc4c(csc4F)[C@@H](CC(=O)O)N3c3cc(C(F)(F)F)ccc3OC)C[C@H]2C)c1` (single isomer, unassigned) [WX-146] belongs 352 nM; to `COc1cc(N2[C@H](C)CN(C3=Nc4cscc4[C@H](CC(=O)O)N3c3cc(C(F)(F)F)ccc3OC)C[C@@H]2C)ccn1` (single isomer, unassigned) [WX-198], 0.713 nM; to `COc1cccc(N2CCN(C3=Nc4c(csc4F)[C@H](CC(=O)O)N3c3cc(C(F)(F)F)ccc3OC)CC2)c1` (single isomer, unassigned) [WX-076], 1 nM.
As for `COc1cc(N2CCN(C3=Nc4c(csc4F)[C@@H](CC(=O)O)N3c3cc(C(F)(F)F)ccc3OC)C[C@H]2C)ncn1` (single isomer, unassigned) [WX-150], the EC50 was found to be 20 nM.
Take `COc1ccc(C(F)(F)F)cc1N1C(N2CCN(c3ccc(F)cc3)CC2)=Nc2c(csc2F)[C@H]1CC(=O)O` (single isomer, unassigned) [WX-113]: the EC50 turned out to be 107 nM.
For the compound `COc1cc(N2CCN(C3=Nc4c(csc4F)[C@H](CC(=O)O)N3c3cc(C(F)(F)F)ccc3OC)CC2)ccn1` (single isomer, unassigned) [WX-097], the EC50 was 1 nM.
As to `COc1ccnc(N2CCN(C3=Nc4ccsc4[C@@H](CC(=O)O)N3c3cc(C(F)(F)F)ccc3OC)C[C@H]2C)c1` (single isomer, unassigned) [WX-140], the EC50 came out at 144 nM.
Regarding `COc1cc(N2CCN(C3=Nc4ccsc4[C@@H](CC(=O)O)N3c3cc(C(F)(F)F)ccc3OC)C[C@H]2C)ncn1` (single isomer, unassigned) [WX-144], the EC50 was 261 nM.
With `COc1cc(N2CCN(C3=Nc4ccsc4[C@H](CC(=O)O)N3c3cc(C(F)(F)F)ccc3OC)C[C@H]2C)ccc1F` (single isomer, unassigned) [WX-201], the concentration giving a half-maximal response (EC50) turned out to be 0.53 nM.
For the compound `CC[C@@H]1CN(C2=Nc3ccsc3[C@H](CC(=O)O)N2c2cc(C(F)(F)F)ccc2OC)CCN1c1cccc(OC)c1` (single isomer, unassigned) [WX-170], the EC50 came to 0.264 nM.
For `COc1cc(N2[C@H](C)CN(C3=Nc4ccsc4[C@@H](CC(=O)O)N3c3cc(C(F)(F)F)ccc3OC)C[C@@H]2C)ccn1` (single isomer, unassigned) [WX-160] the value was 44.4 nM; for `COc1cc(N2[C@H](C)CN(C3=Nc4cscc4[C@@H](CC(=O)O)N3c3cc(C(F)(F)F)ccc3OC)C[C@@H]2C)ccn1` (single isomer, unassigned) [WX-199], more than 10 nM.
On to `COc1cncc(N2CCN(C3=Nc4c(csc4F)[C@H](CC(=O)O)N3c3cc(C(F)(F)F)ccc3OC)C[C@H]2C)c1` (single isomer, unassigned) [WX-133], for which the EC50 was found to be 17 nM.
As for `COc1cc(N2CCN(C3=Nc4c(csc4F)[C@@H](CC(=O)O)N3c3cc(C(F)(F)F)ccc3OC)CC2)ccn1` (single isomer, unassigned) [WX-098], the EC50 turned out to be 31 nM.
Take `COc1cncc(N2CCN(C3=Nc4ccsc4[C@H](CC(=O)O)N3c3cc(C(F)(F)F)ccc3OC)C[C@H]2C)c1` (single isomer, unassigned) [WX-137]: the EC50 was 31 nM.
Regarding `COc1cc(N2CCN(C3=Nc4c(csc4F)[C@@H](CC(=O)O)N3c3cc(C(F)(F)F)ccc3OC)C[C@H]2C)ccn1` (single isomer, unassigned) [WX-148], the EC50 stood at 12 nM.
As for `COc1ccnc(N2CCN(C3=Nc4c(csc4F)[C@H](CC(=O)O)N3c3cc(C(F)(F)F)ccc3OC)C[C@H]2C)n1` (single isomer, unassigned) [WX-129], the EC50 was found to be 14 nM.

What is called EC50 is the concentration needed to bring the measured effect to its halfway point.
